Measurements reported in patent US12208096B2, “Effective treatment of depression in patients having impaired learning and/or memory or certain EEG characteristics with a benzylpiperazine-aminopyridine agent” (Alto Neuroscience, Inc., priority 2022, dated 2025).

Experiments:
[1] = tested on: patients having major depressive disorder; assay: First Phase 2 clinical trial of NSI-189 in major depressive disorder (220 patients, SPCD design), original and retrospective analysis; assay type: in vivo, human
Procedure: A subsequent Phase 2 study was then performed on 220 patients with major depression (11). […] Treatment in either stage was given for six weeks. This design is termed a Sequential Parallel Clinical Design (SPCD) and is analyzed statistically by combining results in a pre-defined manner for outcomes differences between relevant groups (e.g., drug vs. placebo) in each of the stages individually. There are two depression outcome measures accepted by the FDA for the evaluation of adults. See the June 2018 FDA draft guidance entitled “Major Depressive Disorder: Developing Drugs for Treatment.” These are the Montgomery-Asberg Depression Rating Scale (MADRS), which was the primary outcome in this study, as well as the Hamilton Depression Rating Scale (HDRS) which was a key secondary outcome measure.
The remaining patients continued their treatment for stage 2 of the trial. Treatment in either stage was given for six weeks. Patients were eligible for study participation if they were between the ages of 18-60 years, with current major depressive disorder of at least 8 weeks duration according to the DSM-5, as diagnosed by the Structured Clinical Interview for the DSM-5 clinical trial version (SCID-5-CT) during the screen and remote assessment visits, and if they were scored at least 20 at screen, remote assessment, and baseline visits on the Montgomery-Asberg Depression Rating Scale (MADRS). The phase 2 study collected cognitive task performance data prior to treatment, and then again after both stage 1 and stage 2 of the treatment protocol. The purpose of doing so was to determine whether treatment with this compound results in improvement in cognitive functioning, as measured by a variety of behavioral measures.
Prior to the inventor's retrospective analysis, there was no consideration as to using behavioral measures to predict treatment outcome nor was there any analysis conducted to this effect. There was no consideration of using cognitive performance as a predictor but only as an outcome measure. […] The tasks in this battery included a simple reaction time (RT) task, a choice RT task, a one-back working memory task, and a visual learning task. Moreover, given the conversion to z-score, a composite cognitive task performance score could be computed by averaging the z-scores for each of the four tasks in the battery. Analyses focused on the MADRS primary outcome of the study. Statistical analyses focused on the complete trial (incorporating both stage 1 and stage 2 outcomes), using the SPCD analytic approach reported in the original study and thus aligned could be compared with the original statistical analysis plan. Mixed models repeated measures (MMRM) were used to predict change from baseline (at 2, 4, and 6 weeks) in clinical scores and included covariates for group (i.e., poor versus good cognition as defined by a given measure of interest), time, time x group, time x baseline MADRS and baseline MADRS. These covariates likewise were used in the original study, and thus results here can be compared with the all-comer results reported previously. Statistical significance was thus assessed on the primary outcome (MADRS change from baseline at 6 weeks across the SPCD design). The change in MADRS scores in the all corner (i.e. original sample) analysis is shown in FIG. 1(A) for comparison to subgroups as defined by cognitive task performance.
To examine the effect of baseline cognition on clinical outcomes, individuals were split at the mean of the average z-score across all tasks (thus a cognition composite score). This generates two groupings, which were termed poor cognition (below mean, negative z scores) or good cognition (above mean, positive z scores). The poor cognition group can also be termed to be cognitively impaired. […]

patients with MDD = assay: Open-label Phase 2 clinical trial of NSI-189 as monotherapy or adjunctive treatment in depression (MADRS); assay type: in vivo, human
Procedure: These patients also underwent a more comprehensive cognitive battery than in the prior Phase 2 study. As above, MMRM analyses were applied on MADRS change from baseline scores in MDD patients. […] In this study, the current episode was determined by the either the prior two years, or the period within the prior two years since the last time at which two continuous months of euthymia occurred, whichever was shorter. Insufficient response to an antidepressant in the current episode was defined as less than a 50% reduction in symptoms (e.g., based on the total score on the MADRS or HDRS).
All analyses used a z=−0.75 cutoff to identify poor cognition patients (with z-scores determined with reference to a separate healthy population) in order to ensure that poor cognition patients are impaired in those tasks.
An overall cognitive performance variable comprised of measures of executive function (digit-symbol substitution task, Wisconsin card sorting task, trail making task, Corsi blocks, verbal fluency), information processing speed (flanker task, choice RT, simple RT) and verbal learning and/or memory was analyzed.
Learning and/or memory was assessed with a word list task, in which patients are given the word lists on five learning trials, and then memory is assessed through recall of those word lists immediately after learning and again after an approximately 20 minute delay (including after inclusion of a new distractor list of words). This computer-implemented task is named VM-REACT (Verbal memory recall computerized test) and is further described in Naparstek et al., J Psychiatr Res., 2019, 114:170-177 (PMID 31096177).
Another way of analyzing the PSD is through the observation that the background trend in the data can be quantified as a measure of background neural activity and has a 1/f relationship (where f is frequency). One way of quantifying this signal is termed the aperiodic exponent, which is estimated as the negative slope for the line of best fit over the 1-50 Hz range of the power spectral density in the log-log space (T. Donoghue, et al., Nat Neurosci, 23(12): 1655-1665 December 2020). Channel-wise correlation of the aperiodic exponent with treatment outcome (as percentage change in MADRS scores from baseline) was examined.

[2] = tested on: patients with major depression; conditions: total daily doses of 40 mg, 80 mg or 120 mg; 18 patients on active drug; cited from earlier work
[3] = tested on: patients having major depressive disorder; conditions: cited from earlier work
[4] = tested on: subjects with moderate to severe depression; assay: Additional clinical trial with NSI-189 (20 subjects, MADRS); assay type: in vivo, human; conditions: 80 mg (40 mg BID)
patients with PTSD = assay: Open-label Phase 2 clinical trial of NSI-189 in PTSD (CAPS-5); assay type: in vivo, human; conditions: 40 mg BID, recall index cutoff z<=-0.5, week 4
Description: These patients underwent the same cognitive battery as patients with depression. As above, MMRM analyses were applied on the Clinician Administered PTSD Scale for DSM-5 (CAPS-5) change from baseline scores in PTSD patients. This analysis included 84 patients.
The overall sample using MMRMs that included core terms for time, baseline, group (i.e., poor versus good cognition as defined by a given measure of interest), time x group and time by baseline. The analyses shown in FIG. 12 used a z≤−0.5 cutoff on recall index scores in order to identify poor cognition patients (with z-scores determined with reference to a separate healthy population identically as for the depressed patients above). This cutoff ensured that poor cognition patients are impaired in this task.

[5] = 80 mg, regardless of how the clinical population was defined
[6] = all patients, 40 mg or 80 mg daily vs placebo, full SPCD analysis or each stage alone

## CC(C)CCNc1ncccc1C(=O)N1CCN(Cc2ccccc2)CC1 [NSI-189, (4-benzylpiperazin-1-yl)-[2-(3-methylbutylamino)pyridin-3-yl]methanone]
[1]; 80 mg arm vs placebo, poor cognition group (cognitive composite score), SPCD analysis Stage 1 and Stage 2, p=0.014
  drug-placebo effect size Cohen's d, change in MADRS scores: 0.58
[1]; good cognition group, 40 mg or 80 mg, p=0.25
  change in MADRS scores, either drug arm versus placebo: no significant differences
[1]; poor cognition group, p=0.39
  change in MADRS scores, 40 mg group versus placebo: not significant
[1]; poor cognition group, stage 1, week 2, p=0.045
  Cohen's d, change in MADRS, 80 mg arm versus placebo: 0.55
[1]; poor cognition group, stage 1, week 4, p=0.01
  Cohen's d, change in MADRS, 80 mg arm versus placebo: 0.7
[1]; poor cognition group, stage 1, week 6, p=0.03
  Cohen's d, change in MADRS, 80 mg arm versus placebo: 0.59
[1]; poor self-reported cognition, CPFQ score >25
  change in MADRS scores, 80 mg versus placebo: no difference is seen between treatment arms
Patients with MDD; 80 mg (40 mg BID), CPFQ>25 vs <=25
  MADRS outcome, self-reported poor versus good cognition: no significant differences
Patients with MDD; 80 mg (40 mg BID), moderate or greater vs minimal or less diminishment
  MADRS outcome, subjective diminishment of memory recall (CPFQ item): not predictive of outcome
Patients with MDD; 80 mg (40 mg BID), overall cognitive composite cutoff z=-0.75
  reduction in the MADRS score, poor versus good cognition patients: significantly better improvement in depressive symptoms
Patients with MDD; 80 mg (40 mg BID), week eight, p=0.004
  Cohen's d, MADRS outcome, poor delayed recall versus good: 0.61
Patients with MDD; 80 mg (40 mg BID), week eight, p=0.010
  Cohen's d, MADRS outcome, poor immediate recall versus good: 0.56
Patients with MDD; 80 mg (40 mg BID), week four, p=0.045
  Cohen's d, MADRS outcome, poor delayed recall versus good: 0.40
Patients with MDD; 80 mg (40 mg BID), week six, p=0.001
  Cohen's d, MADRS outcome, poor delayed recall versus good: 0.67
Patients with MDD; 80 mg (40 mg BID), week six, p=0.022
  Cohen's d, MADRS outcome, poor immediate recall versus good: 0.48
Patients with MDD; 80 mg (40 mg BID), week two, p=0.028
  Cohen's d, MADRS outcome, poor delayed recall versus good: 0.43
Patients with MDD; 80 mg, EEG resting eyes closed, split at the median
  change in MADRS from baseline, low versus high aperiodic exponent patients: significantly better depression outcome
Patients with MDD; [5]
  remission rates, poor versus good learning and/or memory patients: approximately double
  response rates, poor versus good learning and/or memory patients: approximately double
Patients with MDD; poor learning and/or memory patients, 80 mg open label, across definitions of the clinical population
  response rates on the MADRS (50% or greater reduction): 60-82%
[2]
  antidepressant efficacy: promising evidence for potential antidepressant efficacy
[3]; 40 mg dose, not corrected for multiple comparisons
  effects on several secondary measures compared to placebo: nominally significant effects
[3]; 80 mg daily dose, all patients
  efficacy on any study measure: did not demonstrate efficacy on any study measure
[3]; [6]
  antidepressant efficacy on the HDRS key secondary measure: failed to demonstrate any evidence of antidepressant efficacy
  antidepressant efficacy on the MADRS primary outcome measure: failed to demonstrate any evidence of antidepressant efficacy
[3]; all-comer population, prior Phase 2 study
  all-comer drug placebo difference, Cohen's d: ~0.2
[4]; poor verbal memory z<-0.5, week 8
  MADRS improvement, poor versus good cognition patients: trend
[4]; poor verbal memory z<-0.5, weeks 2, 4, and 6
  MADRS improvement, poor versus good cognition patients: large and statistically significantly greater improvement
Patients with PTSD
  CAPS-5 change from baseline, poor versus good cognition: significantly greater reduction in PTSD symptoms
